Reference: patent publication US9371320B2, “Heterocyclic compound” (TAKEDA PHARMACEUTICAL COMPANY LIMITED, priority 2012, dated 2016)
Structures can show the parent of a compound that is named as a salt. Where two headings read alike, the source gives them in different places.

Columns and labels:
[1] = target: T1, JAK1 (Homo sapiens, UniProt P23458); assay: JAK1 enzyme inhibition test (LANCE method); type: biochemical; conditions: for inhibition at 1 µM: test compound 1 μM, read-out: Inhibitory rate (%) JAK1 1 μM; for inhibition at 10 µM: read-out: Inhibitory rate (%) JAK1 10 μM
T1 construct: purchased Invitrogen
T1 sequence (P23458 whole entry): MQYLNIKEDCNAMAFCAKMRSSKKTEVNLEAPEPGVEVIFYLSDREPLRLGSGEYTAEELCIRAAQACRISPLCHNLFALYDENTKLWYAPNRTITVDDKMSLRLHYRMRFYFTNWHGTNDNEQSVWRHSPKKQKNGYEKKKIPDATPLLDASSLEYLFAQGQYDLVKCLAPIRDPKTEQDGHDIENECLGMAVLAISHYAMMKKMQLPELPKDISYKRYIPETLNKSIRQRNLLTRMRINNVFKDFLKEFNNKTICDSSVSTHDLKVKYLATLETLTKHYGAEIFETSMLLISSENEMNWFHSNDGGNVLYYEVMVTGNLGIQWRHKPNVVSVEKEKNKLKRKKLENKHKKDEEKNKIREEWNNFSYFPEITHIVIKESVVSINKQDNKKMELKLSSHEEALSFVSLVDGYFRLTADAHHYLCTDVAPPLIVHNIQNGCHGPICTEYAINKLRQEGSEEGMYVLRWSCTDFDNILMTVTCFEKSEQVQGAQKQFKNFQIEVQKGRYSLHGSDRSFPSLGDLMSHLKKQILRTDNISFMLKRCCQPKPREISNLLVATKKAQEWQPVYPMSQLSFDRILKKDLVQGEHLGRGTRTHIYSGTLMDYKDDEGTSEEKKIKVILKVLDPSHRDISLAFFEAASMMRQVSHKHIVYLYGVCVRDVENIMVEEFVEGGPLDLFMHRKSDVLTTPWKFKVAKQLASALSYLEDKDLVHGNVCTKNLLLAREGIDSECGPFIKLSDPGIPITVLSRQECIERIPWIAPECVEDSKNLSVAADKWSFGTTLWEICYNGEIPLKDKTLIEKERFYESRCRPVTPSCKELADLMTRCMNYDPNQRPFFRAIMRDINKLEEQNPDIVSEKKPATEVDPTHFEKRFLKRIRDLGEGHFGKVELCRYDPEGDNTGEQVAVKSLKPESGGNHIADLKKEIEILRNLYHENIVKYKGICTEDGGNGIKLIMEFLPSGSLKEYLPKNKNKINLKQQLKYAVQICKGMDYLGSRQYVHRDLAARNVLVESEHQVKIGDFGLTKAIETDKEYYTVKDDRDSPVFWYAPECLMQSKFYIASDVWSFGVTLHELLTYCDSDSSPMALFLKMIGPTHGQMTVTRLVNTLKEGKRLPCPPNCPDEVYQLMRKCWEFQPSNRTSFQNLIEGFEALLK
Procedure, shortened: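 TR-FRET (LANCE) kinase assay using JAK1 at 187.5 ng/mL, ULight-JAK1 peptide at 300 nM and ATP at 150 μM, given as solution concentrations before mixing. Buffer was 50 mM HEPES pH 7.5 with 10 mM MgCl2 and 2 mM DTT, and the reaction ran 1 h at room temperature. Eu anti-phosphotyrosine signal at 665 nm was expressed relative to a no-enzyme well, taken as 100% inhibition.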

[2] = target: T2, Tyk2 (Homo sapiens, UniProt P29597); assay: Tyk2 enzyme inhibition test (LANCE method); type: biochemical; conditions: for inhibition at 1 µM: read-out: Inhibitory rate (%) Tyk2 1 μM
T2 construct: purchased Invitrogen
T2 sequence (P29597 whole entry): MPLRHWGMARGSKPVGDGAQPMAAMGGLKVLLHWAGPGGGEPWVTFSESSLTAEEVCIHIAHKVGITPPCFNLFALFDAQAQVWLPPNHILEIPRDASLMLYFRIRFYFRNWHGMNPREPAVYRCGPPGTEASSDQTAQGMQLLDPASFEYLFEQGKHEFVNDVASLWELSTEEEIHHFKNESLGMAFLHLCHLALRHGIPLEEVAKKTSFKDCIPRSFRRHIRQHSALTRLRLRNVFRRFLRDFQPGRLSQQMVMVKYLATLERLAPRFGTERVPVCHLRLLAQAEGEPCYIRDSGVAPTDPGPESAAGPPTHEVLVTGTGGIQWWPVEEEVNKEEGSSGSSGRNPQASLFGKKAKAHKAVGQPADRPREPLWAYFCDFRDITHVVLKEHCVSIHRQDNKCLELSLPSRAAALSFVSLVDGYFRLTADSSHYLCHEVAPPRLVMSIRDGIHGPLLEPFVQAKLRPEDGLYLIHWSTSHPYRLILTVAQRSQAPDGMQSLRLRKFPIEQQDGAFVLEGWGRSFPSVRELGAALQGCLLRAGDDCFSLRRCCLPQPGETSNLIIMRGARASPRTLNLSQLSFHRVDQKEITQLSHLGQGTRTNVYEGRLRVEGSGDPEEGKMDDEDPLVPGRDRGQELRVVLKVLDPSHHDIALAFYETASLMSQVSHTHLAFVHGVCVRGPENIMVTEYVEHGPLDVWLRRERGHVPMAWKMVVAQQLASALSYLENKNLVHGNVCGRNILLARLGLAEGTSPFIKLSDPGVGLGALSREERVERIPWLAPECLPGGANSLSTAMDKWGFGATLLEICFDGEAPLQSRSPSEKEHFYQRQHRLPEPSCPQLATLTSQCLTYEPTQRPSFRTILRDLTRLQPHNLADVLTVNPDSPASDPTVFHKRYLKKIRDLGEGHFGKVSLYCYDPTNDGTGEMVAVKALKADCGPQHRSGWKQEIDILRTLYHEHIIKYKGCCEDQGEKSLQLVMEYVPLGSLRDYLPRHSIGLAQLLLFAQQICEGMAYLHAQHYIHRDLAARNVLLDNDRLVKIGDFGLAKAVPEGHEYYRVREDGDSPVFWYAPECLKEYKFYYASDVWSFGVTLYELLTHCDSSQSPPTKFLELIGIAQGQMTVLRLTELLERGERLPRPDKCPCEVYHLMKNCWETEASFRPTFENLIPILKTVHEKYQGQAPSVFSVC
Procedure, shortened: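 Recombinant Tyk2 (375 ng/mL stock) with ULight-JAK1 peptide (300 nM stock) and ATP (30 μM stock) in HEPES pH 7.5/MgCl2/EGTA/DTT buffer, 1 h at room temperature. Stopped with EDTA plus Eu-anti-phosphotyrosine antibody; TR-FRET read at 665 nm after 1 h. No-enzyme wells define 100% inhibition.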

SMILES	inhibition at 1 µM [1] [%]	inhibition at 1 µM ([2]; test compound 1 μM) [%]	also measured
CCC(COC)n1cc(-c2ccc(CC#N)cc2)c2c(=O)[nH]ccc21 (stereo not shown) [Example 20, (4-(1-(1-methoxybutan-2-yl)-4-oxo-4,5-dihydro-1H-pyrrolo[3,2-c]pyridin-3-yl)phenyl)acetonitrile]	59	35	
N#CCOc1ccc(-c2cn(C3CCCC3)c3c(C#N)c[nH]c(=O)c23)cc1 [Example 121, 3-(4-(cyanomethoxy)phenyl)-1-cyclopentyl-4-oxo-4,5-dihydro-1H-pyrrolo[3,2-c]pyridine-7-carbonitrile]	87	97	
NS(=O)(=O)c1ccc(-c2nn(C3CCOC3)c3cc[nH]c(=O)c23)cc1 (stereo not shown) [Example 82, 4-(4-oxo-1-(tetrahydrofuran-3-yl)-4,5-dihydro-1H-pyrazolo[4,3-c]pyridin-3-yl)benzenesulfonamide]	95		Inhibitory rate (%) Tyk2 1 μM ([2]; test compound 1 μM): 78%
NS(=O)(=O)c1cccc(Nc2nn(C3CCCC3)c3c(Br)c[nH]c(=O)c23)c1 [Example 285, 3-((7-bromo-1-cyclopentyl-4-oxo-4,5-dihydro-1H-pyrazolo[4,3-c]pyridin-3-yl)amino)benzenesulfonamide]	70	82	
CC(C)(C#N)c1ccc(-c2cn(C3CCCC3)c3c(C#N)c[nH]c(=O)c23)cc1 [Example 139, 3-(4-(2-cyanopropan-2-yl)phenyl)-1-cyclopentyl-4-oxo-4,5-dihydro-1H-pyrrolo[3,2-c]pyridine-7-carbonitrile]	96	98	
Cn1ccc(-c2cn(C3CCCC3)c3c(C#N)c[nH]c(=O)c23)n1 [Example 136, 1-cyclopentyl-3-(1-methyl-1H-pyrazol-3-yl)-4-oxo-4,5-dihydro-1H-pyrrolo[3,2-c]pyridine-7-carbonitrile]	59	93	
NS(=O)(=O)c1ccc(-c2nn(C3CCCOC3)c3cc[nH]c(=O)c23)cc1 (stereo not shown) [Example 87, 4-(4-oxo-1-(tetrahydro-2H-pyran-3-yl)-4,5-dihydro-1H-pyrazolo[4,3-c]pyridin-3-yl)benzenesulfonamide]	99	96	
NC(=O)c1cc(-c2cn(C3CCCC3)c3c(CO)c[nH]c(=O)c23)cs1 [Example 40, 4-(1-cyclopentyl-7-(hydroxymethyl)-4-oxo-4,5-dihydro-1H-pyrrolo[3,2-c]pyridin-3-yl)thiophene-2-carboxamide]	78	78	
O=c1[nH]cc(Cl)c2c1c(-c1ccc(N3CCSCC3)cc1)nn2-c1c(F)cccc1F [Example 236, 7-chloro-1-(2,6-difluorophenyl)-3-(4-(thiomorpholin-4-yl)phenyl)-1,5-dihydro-4H-pyrazolo[4,3-c]pyridin-4-one]	65	99	
O=C(O)c1cc(-c2nn(C3CCOCC3)c3cc[nH]c(=O)c23)cs1 [Example 23, 4-(4-oxo-1-(tetrahydro-2H-pyran-4-yl)-4,5-dihydro-1H-pyrazolo[4,3-c]pyridin-3-yl)thiophene-2-carboxylic acid]	98	98	
CC(C)Cn1cc(-c2cn(C3CCCC3)c3c(C#N)c[nH]c(=O)c23)cn1 [Example 135, 1-cyclopentyl-3-(1-isobutyl-1H-pyrazol-4-yl)-4-oxo-4,5-dihydro-1H-pyrrolo[3,2-c]pyridine-7-carbonitrile]	56	97	
N#Cc1c[nH]c(=O)c2c(-c3ccn[nH]3)cn(C3CCCC3)c12 [Example 125, 1-cyclopentyl-4-oxo-3-(1H-pyrazol-5-yl)-4,5-dihydro-1H-pyrrolo[3,2-c]pyridine-7-carbonitrile hydrochloride]	80	96	
NS(=O)(=O)c1ccc(-c2nn(C3CCC(F)(F)CC3)c3cc[nH]c(=O)c23)cc1 [Example 290, 4-(1-(4,4-difluorocyclohexyl)-4-oxo-4,5-dihydro-1H-pyrazolo[4,3-c]pyridin-3-yl)benzenesulfonamide]	98	95	
NS(=O)(=O)c1ccc(-c2nn(C3CCCC3)c3cc[nH]c(=O)c23)cc1 [Example 92, 4-(1-cyclopentyl-4-oxo-4,5-dihydro-1H-pyrazolo[4,3-c]pyridin-3-yl)benzenesulfonamide]	100	99	
O=c1[nH]cc(Cl)c2c1c(-c1csc(CN3CCOCC3)c1)nn2-c1c(F)cccc1F [Example 203, 7-chloro-1-(2,6-difluorophenyl)-3-(5-(morpholin-4-ylmethyl)-3-thienyl)-1,5-dihydro-4H-pyrazolo[4,3-c]pyridin-4-one]		100	inhibition at 10 µM ([1]; test compound 10 μM (Ex. 182-220), beside Tyk2 1 μM): 81%
CNC(=O)c1cc(-c2nn(-c3c(F)cccc3F)c3c(Br)c[nH]c(=O)c23)cs1 [Example 145, 4-(7-bromo-1-(2,6-difluorophenyl)-4-oxo-4,5-dihydro-1H-pyrazolo[4,3-c]pyridin-3-yl)-N-methylthiophene-2-carboxamide]	99	100	
COCC(=O)N1CCN(c2ccc(-c3nn(-c4c(F)cccc4F)c4cc[nH]c(=O)c34)cc2)CC1 [Example 313, 1-(2,6-difluorophenyl)-3-(4-(4-(methoxyacetyl)piperazin-1-yl)phenyl)-1,5-dihydro-4H-pyrazolo[4,3-c]pyridin-4-one]	95	100	
NS(=O)(=O)c1ccc(-c2cn(CC(O)CO)c3cc[nH]c(=O)c23)cc1 (stereo not shown) [Example 91, 4-(1-(2,3-dihydroxypropyl)-4-oxo-4,5-dihydro-1H-pyrrolo[3,2-c]pyridin-3-yl)benzenesulfonamide]	19	92	
NC(=O)c1cc(-c2nn(C3CCC(O)(c4ccccc4)CC3)c3cc[nH]c(=O)c23)cs1 (stereo not shown) [Example 172, 4-(1-(4-hydroxy-4-phenylcyclohexyl)-4-oxo-4,5-dihydro-1H-pyrazolo[4,3-c]pyridin-3-yl)thiophene-2-carboxamide]	99	97	
NC(=O)c1cccc(-c2nn(C3CCCC3)c3cc[nH]c(=O)c23)c1 [Example 143, 3-(1-cyclopentyl-4-oxo-4,5-dihydro-1H-pyrazolo[4,3-c]pyridin-3-yl)benzamide]	93	92	
COC(=O)c1cc(-c2cn(C3CCCC3)c3cc[nH]c(=O)c23)cs1 [Example 3, methyl 4-(1-cyclopentyl-4-oxo-4,5-dihydro-1H-pyrrolo[3,2-c]pyridin-3-yl)thiophene-2-carboxylate]	97	96	
COC(=O)c1cc(-c2nn(-c3c(F)cccc3F)c3cc[nH]c(=O)c23)cs1 [Example 36, methyl 4-(1-(2,6-difluorophenyl)-4-oxo-4,5-dihydro-1H-pyrazolo[4,3-c]pyridin-3-yl)thiophene-2-carboxylate]	97	98	
COCCN(C)c1ccc(-c2nn(-c3c(F)cccc3F)c3c(Cl)c[nH]c(=O)c23)cc1 [Example 241, 7-chloro-1-(2,6-difluorophenyl)-3-(4-((2-methoxyethyl)(methyl)amino)phenyl)-1,5-dihydro-4H-pyrazolo[4,3-c]pyridin-4-one]	53	98	
NC(=O)c1ccc(F)c(-c2nn(-c3c(F)cccc3F)c3c(Cl)c[nH]c(=O)c23)c1 [Example 269, 3-(7-chloro-1-(2,6-difluorophenyl)-4-oxo-4,5-dihydro-1H-pyrazolo[4,3-c]pyridin-3-yl)-4-fluorobenzamide]			inhibition at 10 µM ([1]; test compound 10 μM): 24%; inhibition at 10 µM ([2]; test compound 10 μM, read-out: Inhibitory rate (%) Tyk2 10 μM): 29%
O=C1CCCN1Cc1ccc(-c2nn(-c3c(F)cccc3F)c3cc[nH]c(=O)c23)cc1 [Example 275, 1-(2,6-difluorophenyl)-3-(4-((2-oxopyrrolidin-1-yl)methyl)phenyl)-1,5-dihydro-4H-pyrazolo[4,3-c]pyridin-4-one]	96	98	
Cn1cc(-c2cn(C3CCCC3)c3c(C#N)c[nH]c(=O)c23)cn1 [Example 131, 1-cyclopentyl-3-(1-methyl-1H-pyrazol-4-yl)-4-oxo-4,5-dihydro-1H-pyrrolo[3,2-c]pyridine-7-carbonitrile]	97	99	
N#CCc1ccc(-c2cn(C3CCOC3)c3cc[nH]c(=O)c23)cc1 (stereo not shown) [Example 22, (4-(4-oxo-1-(tetrahydrofuran-3-yl)-4,5-dihydro-1H-pyrrolo[3,2-c]pyridin-3-yl)phenyl)acetonitrile]	77	53	
NS(=O)(=O)c1ccc(-c2nn(-c3ccccc3)c3cc[nH]c(=O)c23)cc1 [Example 30, 4-(4-oxo-1-phenyl-4,5-dihydro-1H-pyrazolo[4,3-c]pyridin-3-yl)benzenesulfonamide]	94	92	
Cc1ccccc1-c1nn(-c2csc(C(N)=O)c2)c2c(=O)[nH]cc(C#N)c12 [Example 70, 4-(4-cyano-3-(2-methylphenyl)-7-oxo-6,7-dihydro-1H-pyrazolo[3,4-c]pyridin-1-yl)thiophene-2-carboxamide]	41	88	
